These results are taken from patent US7541477B2, “Antagonists to melanin-concentrating hormone receptor comprising benzimidazole derivative as active ingredient” (Banyu Pharmaceutical Co., Ltd., priority 2002, dated 2009).

This test addresses T1, human MCH-1R (Homo sapiens, UniProt Q99705).
T1 construct: expressed in transfected cells; host or cells: CHO-K1 (American Type Culture Collection), membrane preparation
In words: MCH binding inhibition assay ([125I]MCH, membranes of CHO-K1 cells expressing MCH-1R). Particulars: 50 pM [125I]MCH, 25° C., 1 hour; read-out: 50% Inhibitory Concentration against MCH-Binding, IC50. As to the method:
cDNA sequence encoding human MCH-1R [FEBS Letters, 398:253(1996), Biochimica et Biophisica Acta, 1401: 216(1998)] was cloned into plasmid vector pEF/mic/cyto (Invitrogen). The expression vector so obtained was transfected into host cells CHO-K1 (American Type Culture Collection) by using Lipofectamine Plus Reagent (Life Technologies) to give MCH-1R expressing cells.
Membrane preparation generated from the cells expressing MCH-1R was incubated together with a test compound and 50 pM [^125I]MCH (NEN) in assay buffer (50 mM Tris buffer, pH7.4, containing 10 mM magnesium chloride, 2 mM ethylenediaminetetraacetic acid, 0.01% Bacitracin and 0.2% bovine serum albumin) at 25° C. for 1 hour, then filtered through a glass filter GF/C (Whatman). After washing the glass filter with 50 mM Tris buffer, pH7.4, containing 10 mM magnesium chloride, 2 mM ethylenediaminetetraacetic acid and 0.04% Tween-20, radioactivity on the glass filter was measured. Nonspecific binding was measured in the presence of 1 μM human MCH and a 50% inhibitory concentration (IC50) of the test compound against specific [^125I]MCH-binding was determined.

Counter-ions that a name gives are not always drawn.

T1 sequence (Q99705 whole entry): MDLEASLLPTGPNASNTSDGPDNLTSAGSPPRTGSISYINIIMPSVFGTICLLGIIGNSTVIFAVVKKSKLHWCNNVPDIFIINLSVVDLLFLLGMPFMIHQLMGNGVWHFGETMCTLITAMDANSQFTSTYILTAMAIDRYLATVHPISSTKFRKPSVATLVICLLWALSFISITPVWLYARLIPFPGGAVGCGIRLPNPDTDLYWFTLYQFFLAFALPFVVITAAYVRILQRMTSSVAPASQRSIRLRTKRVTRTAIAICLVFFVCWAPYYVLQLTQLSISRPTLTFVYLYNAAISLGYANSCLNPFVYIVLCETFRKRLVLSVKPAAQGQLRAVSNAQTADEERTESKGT

As to `CC(C)N(C)c1nc2ccc(NC(=O)CCc3ccc(C(F)(F)F)cc3)cc2[nH]1` [Example 1, N-{2-[isopropyl(methyl)amino]-1H-benzimidazol-6-yl}-3-[4-(trifluoromethyl)phenyl]propanamide], the IC50 worked out at 5.8 nM. The value for `CC(C)N(C)c1nc2ccc(NC(=O)c3cnc(-c4ccc(F)cc4)cn3)cc2[nH]1` [Example 24, 5-(4-Fluorophenyl)-N-{2-[isopropyl(methyl)amino]-1H-benzimidazol-6-yl}-2-pyrazinecarboxamide hydrochloride] was 3.3 nM; that for `COc1ccc(-c2ccc(C(=O)Nc3ccc4nc(N(C)C(C)C)[nH]c4c3)cc2)cn1` [Example 17, N-{2-[isopropyl(methyl)amino]-1H-benzimidazol-6-yl}-4-(6-methoxy-3-pyridinyl)benzamide] was 6.2 nM.
